According to US4468350A, “KA-6643-Series antibiotics, process for producing same and medical composition containing same” (Kowa Co., Ltd., priority 1980, dated 1984):
Converted amounts (≈) assume the structure as drawn. Like-named read-outs stand apart in the source and are kept apart here.

Columns and labels:
dehydropeptidase = assay: Decomposition with dehydropeptidase (stability); type: in vitro ADME; details: dehydropeptidase extracted from pig kidney and purified; KA-6643-A given as 1
β-lactamase = details: disclosed in Japanese Laid-open Patent Application Nos. 55-139380 and 56-43284; cited from earlier work
[1] = test system: gram-positive and gram-negative bacteria; details: disclosed in Japanese Laid-open Patent Application Nos. 55-139380 and 56-43284; cited from earlier work
Solubility in solvents = type: physicochemical; details: sodium salt
[2] = test system: Pseudomonas aeruginosa NCTC 10490; assay: Antibacterial spectrum, minimum inhibitory concentration; type: cell-based; details: NCTC10490
[3] = test system: Escherichia coli ML-1410R EC-1; assay: Antibacterial activity-improving action against β-lactam-resistant bacteria (Disc method); type: cell-based; details: ML1410REC1, 18 h
Method: (1) Antibacterial activity-improving action against β-lactam-resistantbacteria (Disc method):
(§1) In Penassay agar (Kyoei Pharm. Co., Ltd.) in which 200 mcg/ml of aminobenzyl penicillin (AB-PC) was inoculated germs of Escherichia coli ML-1410R EC-1 which β-lactamase-producing organisms, and 10 ml of the inoculated medium were poured on a Petri disch of 9 cm in diameter and solidified to give a test medium.
(§2) On this agar medium were placed pulp discs of 8 mm in diameter into which were respectively introduced […] of aqueous solutions of the substance KA-6643-D with a concentration of 10 mcg/ml followed by culturing at 37° C. for 18 hours and measuring the diameter of an inhibition zone around each disc. For purposes of control, the above experiment was repeated using the same type of medium in which no AB-PC was added.
The synergistic effect of the present substance and Ampicillin (aminobenzylpenicillin, AB-PC) on Escherichia coli which is resistant to Ampicillin was investigated by the disc method similarly to item (II) above with the results shown in Table 2.

[4] = test system: Enterobacter cloacae IID 977; assay: Antibacterial spectrum, minimum inhibitory concentration; type: cell-based; details: IID977
[5] = test system: Klebsiella pneumoniae PCI-602; assay: as above; type: cell-based; details: PCI602
[6] = test system: Escherichia coli NIHJ JC-2; assay: as above; type: cell-based; details: NIHJJC2
Proteus vulgaris OX17 = assay: as above; type: cell-based
[7] = test system: Staphylococcus aureus 209P JC-1; assay: as above; type: cell-based
[8] = test system: Ampicillin-resistant Escherichia coli; assay: Synergistic effect with Ampicillin (AB-PC) on Ampicillin-resistant Escherichia coli (disc method); type: cell-based; details: for Inhibitory zone: AB-PC 500 mcg/ml; for Diameter of inhibitory zone: AB-PC added
Method: as §1, §2
The synergistic effect of the present substance and Ampicillin (AB-PC) on the Ampicillin-resistant Escherichia coli was investigated by the disc method similarly to the case of item (II) above, except that AB-PC was used in an amount of 500 mcg/ml.
The synergistic effect of the present substance and Ampicillin (AB-PC) on the Ampicillin-resistant Escherichia coli was investigated by the disc method similarly to the case of item (II) above.

Proteus inconstants = assay: Antibacterial spectrum, minimum inhibitory concentration; type: cell-based

Compound: CC(=O)NC=C[S+]([O-])C1=C(C(=O)O)N2C(=O)C(C(C)(C)O)C2C1 (stereo not shown) [KA-6643-A]
- rate of decomposition with dehydropeptidase (dehydropeptidase): 1
- β-lactamase inhibiting activity (β-lactamase): β-lactamase inhibiting activity
- antibacterial activity against both gram-positive and gram-negative bacteria [1]: excellent antibacterial activity

Compound: CC(=O)NC=C[S+]([O-])C1=C(C(=O)O)N2C(=O)C(C(C)(C)OS(=O)(=O)O)C2C1 (stereo not shown) [KA-6643-B]
- β-lactamase inhibiting activity (β-lactamase): β-lactamase inhibiting activity
- antibacterial activity against both gram-positive and gram-negative bacteria [1]: excellent antibacterial activity

Compound: CC(=O)NCCSC1=C(C(=O)O)N2C(=O)[C@@H](C(C)(C)OS(=O)(=O)O)[C@H]2C1 [KA-6643-D]
- Solubility in organic solvents (Solubility in solvents; organic solvents such as acetone, chloroform, ethyl acetate and petroleum ether): substantially insoluble
- Solubility in water (Solubility in solvents; water): Readily soluble
- MIC [2]: 25 µg/mL (≈ 61.2 µM)
- zone of inhibition at 10 µg/mL ([3]; read-out: Diameter of inhibitory zone, present compound 10 mcg/ml, AB-PC 200 mcg/ml in medium, 37° C.): 22 mm
- zone of inhibition at 10 µg/mL ([3]; read-out: Diameter of inhibitory zone, present compound 10 mcg/ml, no AB-PC, 37° C.): 0 mm
- MIC [4]: 6.25 µg/mL (≈ 15.3 µM)
- MIC [5]: 3.1 µg/mL (≈ 7.59 µM)
- MIC [6]: 3.1 µg/mL (≈ 7.59 µM)
- MIC (Proteus vulgaris OX17): 12.5 µg/mL (≈ 30.6 µM)
- MIC [7]: 25 µg/mL (≈ 61.2 µM)

Compound: CC(=O)NCCSC1=C(C(=O)O)N2C(=O)[C@@H](C(C)(C)O)[C@H]2C1 [KA-6643-G]
- Solubility in acetone, ethyl acetate and chloroform (Solubility in solvents; acetone, ethyl acetate and chloroform): substantially insoluble
- Solubility in water and methanol (Solubility in solvents): Soluble
- MIC [2]: > 25 µg/mL
- rate of decomposition with dehydropeptidase (dehydropeptidase): 2.5×10^-3
- MIC [4]: > 25 µg/mL
- Inhibitory zone ([8]; present substance 250 mcg/ml): 20.5 mm
- Inhibitory zone ([8]; present substance 500 mcg/ml): 22.5 mm
- Inhibitory zone ([8]; present substance 1,000 mcg/ml): 24.5 mm
- MIC [5]: > 25 µg/mL
- MIC [6]: > 25 µg/mL
- MIC (Proteus vulgaris OX17): > 25 µg/mL
- MIC [7]: 6.25 µg/mL (≈ 19 µM)

Compound: CC(=O)NCCSC1=C(C(=O)O)N2C(=O)C(=C(C)CO)C2C1 (stereo not shown) [KA-6643-X]
- Solubility in acetone, ethyl acetate, chloroform and ether (Solubility in solvents; acetone, ethyl acetate, chloroform and ether): substantially insoluble
- Solubility in water and methanol (Solubility in solvents): Soluble
- MIC [2]: 3.1 µg/mL (≈ 9.5 µM)
- MIC [4]: 0.78 µg/mL (≈ 2.39 µM)
- MIC (Proteus inconstants): 3.1 µg/mL (≈ 9.5 µM)
- zone of inhibition at 25 µg/mL ([8]; Escherichia coli, 18 h, present substance 25 mcg/ml, No AB-PC added, read-out: Diameter of inhibitory zone): 19 mm
- zone of inhibition at 50 µg/mL ([8]; Escherichia coli, 18 h, present substance 50 mcg/ml, No AB-PC added, read-out: Diameter of inhibitory zone): 21 mm
- Diameter of inhibitory zone ([8]; present substance 25 mcg/ml): 21.5 mm
- Diameter of inhibitory zone ([8]; present substance 50 mcg/ml): 23.0 mm
- MIC [5]: 0.2 µg/mL (≈ 0.613 µM)
- MIC [6]: 0.05 µg/mL (≈ 0.153 µM)
- MIC (Proteus vulgaris OX17): 0.05 µg/mL (≈ 0.153 µM)
- MIC [7]: 1.56 µg/mL (≈ 4.78 µM)
